Results: PubChem BioAssay AID1259411 (Chemical Carcinogenesis Research Information System (CCRIS), 2018)
Calls of active or inactive are those of the source. The rule behind the calls is not given here.

System: rodent carcinogenicity bioassays, tumor incidence
Test: CCRIS carcinogenicity studies
How it was run: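 NCI-built, expert-reviewed records of carcinogenicity and related test outcomes (mutagenicity, tumor promotion/inhibition) compiled from published and report sources, historical span 1985-2011, not updated.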

CCN(Cc1cccc(S(=O)(=O)O)c1)c1ccc(C(=C2C=CC(=[N+](CC)Cc3cccc(S(=O)(=O)O)c3)C=C2)c2ccc(O)cc2S(=O)(=O)[O-])cc1
carcinogen call (Species: MOUSE, Strain/Sex: SWISS-WEBSTER/FEMALE, Route: DERMAL, Dose: 0, 1% IN 0.1 ML DISTILLED WATER 1/WK FOR 19.5 MO (STUDY DURATION: 19.5 MO)): inactive; negative | carcinogen call (Species: MOUSE, Strain/Sex: SWISS-WEBSTER/MALE, Route: DERMAL, Dose: 0, 1% IN 0.1 ML DISTILLED WATER 1/WK FOR 19.5 MO (STUDY DURATION: 19.5 MO)): inactive; negative | carcinogen call (Species: RAT, Strain/Sex: FISCHER/FEMALE, Route: SUBCUTANEOUS, Dose: 0, 0.5 ML OF 3% SOLUTION IN DISTILLED WATER (0; 15 MG) 2/WK FOR 26 WK THEN 1/WK FOR 22 WK (STUDY DURATION: 11 MO), Dose: 0, 0.5 ML OF 3% SOLUTION IN DISTILLED WATER (0; 15 MG) 2/WK FOR 26 WK THEN 1/WK FOR 22 WK (STUDY DURATION: 11 MO), Tumor Site: Type of Lesion: INJECTION SITE: FIBROSARCOMA): active; positive | carcinogen call (Species: RAT, Strain/Sex: FISCHER/FEMALE, Route: SUBCUTANEOUS, Dose: 0, 0.5 ML OF 6% SOLUTION IN DISTILLED WATER (0; 30 MG) 2/WK FOR 19 WK THEN 3% SOLUTION (0; 15 MG) 2/WK FOR 9 WK FOLLOWED, Dose: 0, 0.5 ML OF 6% SOLUTION IN DISTILLED WATER (0; 30 MG) 2/WK FOR 19 WK THEN 3% SOLUTION (0; 15 MG) 2/WK FOR 9 WK FOLLOWED, Tumor Site: Type of Lesion: INJECTION SITE: FIBROSARCOMA): active; positive

Cc1cc(Cl)ccc1OCC(=O)O
carcinogen call (Species: MOUSE, Strain/Sex: B6C3F1/FEMALE, Route: ORAL, Dose: 0, 20, 100, 500 PPM IN DIET FOR 104 WK (STUDY DURATION: 104 WK), Dose: 0, 20, 100, 500 PPM IN DIET FOR 104 WK (STUDY DURATION: 104 WK)): inactive; negative | carcinogen call (Species: MOUSE, Strain/Sex: B6C3F1/MALE, Route: ORAL, Dose: 0, 20, 100, 500 PPM IN DIET FOR 104 WK (STUDY DURATION: 104 WK), Dose: 0, 20, 100, 500 PPM IN DIET FOR 104 WK (STUDY DURATION: 104 WK)): inactive; negative | carcinogen call (Species: NEWT, Route: IMMERSION, Dose: 0, 100, 200, 400 PPM 4 D/WK FOR 12 MO (STUDY DURATION: 24 MO), Dose: 0, 100, 200, 400 PPM 4 D/WK FOR 12 MO (STUDY DURATION: 24 MO)): inactive; negative | carcinogen call (Species: RAT, Strain/Sex: WISTAR/FEMALE, Route: ORAL, Dose: 0, 20, 80, 320 PPM IN DIET FOR 104 WK (STUDY DURATION: 104 WK), Dose: 0, 20, 80, 320 PPM IN DIET FOR 104 WK (STUDY DURATION: 104 WK)): inactive; negative | carcinogen call (Species: RAT, Strain/Sex: WISTAR/MALE, Route: ORAL, Dose: 0, 20, 80, 320 PPM IN DIET FOR 104 WK (STUDY DURATION: 104 WK), Dose: 0, 20, 80, 320 PPM IN DIET FOR 104 WK (STUDY DURATION: 104 WK)): inactive; negative

C1CSCN1
carcinogen call (Species: MOUSE, Strain/Sex: CD-1/FEMALE, Route: DERMAL, Dose: 0, 50 UMOL/0.1 ML DMSO 2/WK FOR 5 WK FOLLOWED 1 WK LATER BY 0.1 ML ACETONE 2/WK FOR 47 WK (STUDY DURATION: 52 WK)): inactive; negative

COP(=S)(OC)Oc1ccc([N+](=O)[O-])cc1
carcinogen call (Species: MOUSE, Strain/Sex: B6C3F1/FEMALE, Route: ORAL, Dose: 0, 62.5, 125 PPM IN DIET, Dose: 0, 62.5, 125 PPM IN DIET): inactive; negative | carcinogen call (Species: MOUSE, Strain/Sex: B6C3F1/MALE, Route: ORAL, Dose: 0, 35, 77 PPM IN DIET, TWA, Dose: 0, 35, 77 PPM IN DIET, TWA): inactive; negative | carcinogen call (Species: RAT, Strain/Sex: F344/FEMALE, Route: ORAL, Dose: 0, 20, 40 PPM IN DIET, Dose: 0, 20, 40 PPM IN DIET): inactive; negative | carcinogen call (Species: RAT, Strain/Sex: F344/MALE, Route: ORAL, Dose: 0, 20, 40 PPM IN DIET, Dose: 0, 20, 40 PPM IN DIET): inactive; negative

C[N+](C)(C)NCCC(=O)[O-]
carcinogen call (Species: MOUSE, Strain/Sex: B6D2F1/FEMALE, Route: GAVAGE, Dose: 0, 400, 4000 MG/KG BW IN 0.2 ML WATER 3X/WK FOR 22 MONTHS (STUDY DURATION: 22 MONTHS), Dose: 0, 400, 4000 MG/KG BW IN 0.2 ML WATER 3X/WK FOR 22 MONTHS (STUDY DURATION: 22 MONTHS)): inactive; negative | carcinogen call (Species: MOUSE, Strain/Sex: C3H/FEMALE, Route: ORAL, Dose: 0, 0.1% IN DRINKING WATER FOR LIFETIME (STUDY DURATION: LIFETIME)): inactive; negative | carcinogen call (Species: MOUSE, Strain/Sex: SHR/FEMALE, Route: SUBCUTANEOUS, Dose: 0, 0.1 MG IN ISOTONIC SALINE 1X/D FOR 5 D WITH 4-WK INTERVALS FOR LIFETIME (STUDY DURATION: LIFETIME)): inactive; negative

CON(C)C(=O)Nc1ccc(Cl)c(Cl)c1
carcinogen call (Species: Mouse, Strain/Sex: CD-1/Female (80/Group), Route: Oral, Dose: 0, 50, 150, 1500 ppm of 97% linuron in diet for 24 mo, study duration 24 mo, Dose: 0, 50, 150, 1500 ppm of 97% linuron in diet for 24 mo, study duration 24 mo, Tumor Site: Type of Lesion: Liver: hepatocellular adenomas (high dose only)): active; positive | carcinogen call (Species: Mouse, Strain/Sex: CD-1/Male (80/Group), Route: Oral, Dose: 0, 50, 150, 1500 ppm of 97% linuron in diet for 24 mo, study duration 24 mo, Dose: 0, 50, 150, 1500 ppm of 97% linuron in diet for 24 mo, study duration 24 mo): inactive; negative | carcinogen call (Species: Rat, Strain/Sex: Charles River CD/Female (70/Group), Route: Oral, Dose: 0, 50, 125, 625 ppm 97% linuron in diet for 24 mo, study duration 24 mo, Dose: 0, 50, 125, 625 ppm 97% linuron in diet for 24 mo, study duration 24 mo): inactive; negative | carcinogen call (Species: Rat, Strain/Sex: Charles River CD/Male (70/Group), Route: Oral, Dose: 0, 50, 125, 625 ppm 97% linuron in diet for 24 mo, study duration 24 mo, Dose: 0, 50, 125, 625 ppm 97% linuron in diet for 24 mo, study duration 24 mo, Tumor Site: Type of Lesion: Testes: Interstitial cell adenoma): active; positive | carcinogen call (Species: Rat, Strain/Sex: Crl:CD (SD)BR /Male (25/Group), Route: Oral, Dose: 0 (control diet), control diet for 18 mo followed by 625 ppm linuron for 6 mo, control diet for 1 yr followed by 625 ppm, Dose: 0 (control diet), control diet for 18 mo followed by 625 ppm linuron for 6 mo, control diet for 1 yr followed by 625 ppm, Tumor Site: Type of Lesion: Testes: interstitial cell tumors (0/25, 2/25 (6-mo. feed), 6/25 (12 mo feed))): active; positive

CCN(CC)CCCC(C)Nc1c2ccc(Cl)cc2nc2ccc(OC)cc12 (stereo not given)
carcinogen call (Species: Mouse, Strain/Sex: CD-1/Female (23/24)/(24/24)(23/24)(22/23), Route: Intraperitoneal, Dose: 0, 10, 50, 150 mg/kg on days 8 and 15 after birth (Study duration: 52 weeks) (Test material solvent: 1% w/v carboxymethy, Dose: 0, 10, 50, 150 mg/kg on days 8 and 15 after birth (Study duration: 52 weeks) (Test material solvent: 1% w/v carboxymethy): inactive; negative | carcinogen call (Species: Mouse, Strain/Sex: CD-1/Male (32/32)/(23/24)(23/24)(25/25), Route: Intraperitoneal, Dose: 0, 10, 50, 150 mg/kg on days 8 and 15 after birth (Study duration: 52 weeks) (Test material solvent: 1% w/v carboxymethy, Dose: 0, 10, 50, 150 mg/kg on days 8 and 15 after birth (Study duration: 52 weeks) (Test material solvent: 1% w/v carboxymethy): inactive; negative

CC(C)(c1ccc(O)cc1)c1ccc(O)cc1
carcinogen call (Species: MOUSE, Strain/Sex: B6C3F1/FEMALE, Route: ORAL, Dose: 0, 5000, 10000 PPM IN DIET FOR 103 WK (STUDY DURATION: 103 WK), Dose: 0, 5000, 10000 PPM IN DIET FOR 103 WK (STUDY DURATION: 103 WK)): inactive; negative | carcinogen call (Species: MOUSE, Strain/Sex: B6C3F1/MALE, Route: ORAL, Dose: 0, 1000, 5000 PPM IN DIET FOR 103 WK (STUDY DURATION: 103 WK), Dose: 0, 1000, 5000 PPM IN DIET FOR 103 WK (STUDY DURATION: 103 WK), Tumor Site: Type of Lesion: HEMATOPOIETIC SYSTEM: LYMPHOMA OR LEUKEMIA): equivocal | carcinogen call (Species: Mouse, Strain/Sex: CD-1/Female (24/group); Route: Subcutaneous; Dose: 0; 10; 100; 1000 ug/kg in corn oil, once a day from days 1-5 of life; study duration 18 mo); Dose: 0; 10; 100; 1000 ug/kg in corn oil, once a day from days 1-5 of life; study duration 18 mo), Tumor Site: Type of Lesion: Uterus, leiomyoma (0/18; 1/23; 2/20; 1/16 [multiple lesions]), Tumor Site: Type of Lesion: Uterus, leiomyoma (0/18; 1/23; 2/20; 1/16 [multiple lesions])): inactive; negative (nonneoplastic and preneoplastic lesions observed in ovary/oviduct and | carcinogen call (Species: RAT, Strain/Sex: F344/FEMALE, Route: ORAL, Dose: 0, 1000, 2000 PPM IN DIET FOR 103 WK (STUDY DURATION: 103 WK), Dose: 0, 1000, 2000 PPM IN DIET FOR 103 WK (STUDY DURATION: 103 WK), Tumor Site: Type of Lesion: HEMATOPOIETIC SYSTEM: LEUKEMIA): equivocal | carcinogen call (Species: RAT, Strain/Sex: F344/MALE, Route: ORAL, Dose: 0, 1000, 2000 PPM IN DIET FOR 103 WK (STUDY DURATION: 103 WK), Dose: 0, 1000, 2000 PPM IN DIET FOR 103 WK (STUDY DURATION: 103 WK), Tumor Site: Type of Lesion: HEMATOPOIETIC SYSTEM: LEUKEMIA): equivocal | carcinogen call (Species: Rat, Strain/Sex: Wistar-Furth/Female (?/group with maximum of 8 pups per dam), Route: Osmotic pump to dams, Dose: 0, 2.5, 25, 250, 1000 ug/kg bw/day from embryonic day 9 to postnatal day 1, study duration 50 or 95 postnatal days, Dose: 0, 2.5, 25, 250, 1000 ug/kg bw/day from embryonic day 9 to postnatal day 1, study duration 50 or 95 postnatal days, Tumor Site: Type of Lesion: Mammary gland, ductal hyperplasia): active; positive (significant increase at all dose levels at pnd 50; significant at 2.5
